Data published in ChEMBL document CHEMBL5725264, “4-(ortho)-fluorophenyl-5-fluoropyrimidin-2-yl amines containing a sulfoximine group” (2016).

Tests used:
[1] = CDK2/CycE Kinase Assay: Method 2: Recombinant fusion proteins of GST and human CDK2 and of GST and human CycE, expressed in insect cells (Sf9) and purified by Glutathion-Sepharose affinity chromatography, were purchased from ProQinase GmbH (Freiburg, Germany). As substrate for the kinase reaction biotinylated peptide biotin-Ttds-[…] (C-terminus in amid form) was used which can be purchased e.g. form the company JERINI Peptide Technologies (Berlin, Germany).For the assay 50 nl of a 100 fold concentrated solution of the test compound in DMSO was pipetted into a black low volume 384 well microtiter plate (Greiner Bio-One, Frickenhausen, Germany), 2 ul of a solution of CDK2/CycE in aqueous assay buffer [50 mM Tris/HCl pH 8.0, 10 mM MgCl2, 1.0 mM dithiothreitol, 0.1 mM sodium ortho-vanadate, 0.01% (v/v) Nonidet-P40 (Sigma)] were added and the mixture was incubated for 15 min at 22° C. to allow pre-binding of the test compounds to the enzyme before the start of the kinase reaction. […] The concentration of CDK2/CycE was adjusted depending of the activity of the enzyme lot and was chosen appropriate to have the assay in the linear range, typical concentrations were in the range of 130 ng/ml. […]
[2] = CDK9/CycT1 Kinase Assay: Method 1a: Recombinant full-length His-tagged human CDK9 and CycT1, expressed in insect cells and purified by Ni-NTA affinity chromatography, were purchased from Invitrogen (Cat. No PV4131). As substrate for the kinase reaction biotinylated peptide biotin-Ttds-[…] (C-terminus in amid form) was used which can be purchased e.g. form the company JERINI Peptide Technologies (Berlin, Germany).For the assay 50 nl of a 100 fold concentrated solution of the test compound in DMSO was pipetted into a black low volume 384 well microtiter plate (Greiner Bio-One, Frickenhausen, Germany), 2 ul of a solution of CDK9/CycT1 in aqueous assay buffer [50 mM Tris/HCl pH 8.0, 10 mM MgCl2, 1.0 mM dithiothreitol, 0.1 mM sodium ortho-vanadate, 0.01% (v/v) Nonidet-P40 (Sigma)] were added and the mixture was incubated for 15 min at 22° C. to allow pre-binding of the test compounds to the enzyme before the start of the kinase reaction. […] The concentration of CDK9/CycT1 was adjusted depending of the activity of the enzyme lot and was chosen appropriate to have the assay in the linear range, typical concentrations were in the range of 1 ug/ml. […]
[3] = CDK9/CycT1 High ATP Kinase Assay: Method 1b: Recombinant full-length His-tagged human CDK9 and CycT1, expressed in insect cells and purified by Ni-NTA affinity chromatography, were purchase from Invitrogen (Cat. No PV4131). As substrate for the kinase reaction biotinylated peptide biotin-Ttds-[…] (C-terminus in amid form) was used which can be purchased e.g. form the company JERINI peptide technologies (Berlin, Germany).For the assay 50 nl of a 100 fold concentrated solution of the test compound in DMSO was pipetted into a black low volume 384 well microtiter plate (Greiner Bio-One, Frickenhausen, Germany), 2 ul of a solution of CDK9/CycT1 in aqueous assay buffer [50 mM Tris/HCl pH 8.0, 10 mM MgCl2, 1.0 mM dithiothreitol, 0.1 mM sodium ortho-vanadate, 0.01% (v/v) Nonidet-P40 (Sigma)] were added and the mixture was incubated for 15 min at 22° C. to allow pre-binding of the test compounds to the enzyme before the start of the kinase reaction. […] The concentration of CDK9/CycT1 was adjusted depending of the activity of the enzyme lot and was chosen appropriate to have the assay in the linear range, typical concentrations were in the range of 0.5 ug/ml. […]

SMILES | IC50 [1] [nM] | IC50 [2] [nM] | IC50 [3] [nM]
C[S@](=N)(=O)Cc1cc(Nc2ncc(F)c(-c3ccc(F)cc3F)n2)cc(C(F)(F)F)c1 | 630 | 13 | 231
C[S@@](=N)(=O)Cc1cc(Nc2ncc(F)c(-c3ccc(F)cc3F)n2)cc(C(F)(F)F)c1 | 780 | 11 | 235
